{"source": "patent US20050181474A1", "about": "“Transport peptides and uses therefor” (priority 2002, published 2005)", "key": {"[1]": {"test_system": "skin", "test": "Homing of peptide after intravenous delivery in vivo", "parameters": "species or system mouse", "procedure": "(§1) Another method used was to perfuse murine hearts ex-vivo on a Langendorf apparatus, administer the phage through the coronary circulation, and then rescue the phage that entered the myocardium. In vivo experiments were also done in which phage was injected into the general circulation of a mouse, any phage binding to the vasculature was removed by treatment with an enzyme solution, and then phage that had entered tissue parenchyma were rescued and enriched."}, "[2]": {"test_system": "heart, skeletal muscle, skin, brain", "test": "In vivo translocation of peptide-displaying phage into tissue parenchyma", "parameters": "species or system mouse", "procedure": "as §1"}, "[3]": {"test_system": "parenchyma of the heart (myocardium)", "test": "Uptake of rhodamine-labeled peptide into heart after coronary infusion", "type": "in vivo, mouse", "details": "single pass infusion through the coronary circulation, FIGS. 4A-C", "from_the_text": "In experiments designed to test the ability of these peptides to cross the endothelium and enter cells in vivo, synthetic transport peptides labeled with the fluorescent marker rhodamine were infused into the coronary circulation of mice. […] Peptides selected for internalization were capable of internalizing into the myocardium efficiently.\nOne such transport peptide is RRGRRRGR."}, "[4]": {"test_system": "endothelial cells (HUVEC cells)", "test": "Internalization of rhodamine-labeled peptide into endothelial cells", "type": "cell-based, human", "details": "FIG. 3A", "from_the_text": "(§2) To test the properties of the peptides defined, small scale synthesis of these peptides was ordered, labeled with rhodamine for fluorescent localization, from the Keck facility at Yale University. They were then used in in vitro and in vivo experiments to investigate the ability of these peptides to enter cells and tissues.\n(§3) FIGS. 3A and 3B show pictures depicting highly efficient internalization of these peptides into cells in culture. One such transport peptide is RRGRRRGR."}, "[5]": {"test_system": "rat aortic and adult human smooth muscle cells", "test": "Internalization of rhodamine-labeled peptide into smooth muscle cells", "type": "cell-based", "details": "FIG. 3B", "from_the_text": "as §2, §3"}}}
{"substance": "GSRHPPL (Transport peptide)", "values": [{"measurement": "homing (tissue targeting)", "setting": "[1]", "value": "appears to significantly target skin"}]}
{"substance": "LLAVPAA (Transport peptide)", "values": [{"measurement": "crossing the blood brain barrier and entry into the brain", "setting": "[2]", "value": "appears capable of crossing the blood brain barrier and entry into the brain"}, {"measurement": "translocating phage into tissues", "setting": "[2]; phage displaying the peptide, heart, skeletal muscle, skin", "value": "capable of translocating phage into heart, skeletal muscle, skin"}]}
{"substance": "RRGRRRGR (Transport peptide)", "values": [{"measurement": "uptake into the parenchyma of the heart", "setting": "[3]", "value": "efficient uptake"}, {"measurement": "uptake (internalization) into endothelial cells", "setting": "[4]", "value": "efficient uptake"}, {"measurement": "uptake (internalization) into smooth muscle cells", "setting": "[5]", "value": "efficient uptake"}]}
